Test results taken from ChEMBL document CHEMBL1201862, “PubChem BioAssay data set” (2004).
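Grown in 96-well plates, cells were treated for 48 hours with each compound at five concentrations. Insufficient inhibition: endpoint recorded as highest concentration tested. At the GI50, growth is halved.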 Active and inactive are the calls of the source. Cut-off read from the data, not from the text of the source: active = GI50 up to about 1.1 µM and inactive = higher.

Legend:
Assay in all cases: NCI-60 cell line screen, 48 h
DLD-1 = tested on: DLD-1
DMS-114 = tested on: DMS-114
DMS-273 = tested on: DMS-273
HOP-18 = tested on: HOP-18
KM-20L2 = tested on: KM-20L2
M19-MEL = tested on: M19-MEL
RXF 631 = tested on: RXF 631
SNB-78 = tested on: SNB-78
XF498 = tested on: XF498

Measured: GI50

O=C1OC(CC(=O)c2ccc(Cl)cc2Cl)C(Cl)=C1Cl (configuration not stated)
inactive: DLD-1 22.4 µM | DMS-114 18.4 µM | DMS-273 39 µM | HOP-18 > 100 µM | KM-20L2 21.1 µM | M19-MEL 20 µM | RXF 631 31.1 µM | SNB-78 33.1 µM | XF498 21.3 µM

COc1ccc2nc3cc(Cl)ccc3c(Sc3ccccc3[N+](=O)[O-])c2c1
inactive: DLD-1 > 100 µM | DMS-114 > 100 µM | DMS-273 > 100 µM | HOP-18 > 100 µM | KM-20L2 > 100 µM | M19-MEL > 100 µM | RXF 631 43.9 µM | SNB-78 41.2 µM | XF498 29.4 µM

C=C1C(=O)O[C@H]2[C@H]1[C@H](OC(=O)/C(C)=C\C)CC(=C)[C@@H]1[C@H](O)[C@H]3O[C@@]3(C)[C@@]12O [EUPATUNDIN]
inactive: DLD-1 > 100 µM | DMS-114 > 100 µM | DMS-273 > 100 µM | HOP-18 > 100 µM | KM-20L2 > 100 µM | M19-MEL > 100 µM | RXF 631 > 100 µM | SNB-78 > 100 µM | XF498 > 100 µM
